Consider one cell line from the supplement of paper PMC10307832.

Test in all cases: relative viability (nuclei count vs DMSO), 5 days (fraction); higher = more cells survive
Compound in the test “Veliparib + Decitabine”: C[C@]1(c2nc3c(C(N)=O)cccc3[nH]2)CCCN1 [Veliparib] + Nc1ncn([C@H]2C[C@H](O)[C@@H](CO)O2)c(=O)n1 [Decitabine] (partner 2 µM)
In short, it runs like this:
(§1)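 Relative viability was taken as the ratio of nuclei in treated wells to nuclei in vehicle wells. Lung cancer cell lines in 1536-well plates received compounds by pin tool one day after seeding, either one drug alone or a fixed anchor-drug dose plus five library-drug doses (not always all listed) in √10 steps. Nuclei were counted on 4× images after 5 days of treatment, and values are medians of duplicate plates.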

Compound in test [1]: COC1=CC=C(C=C1)CN2C=CC3=C2C=C(C=C3)C(=O)NO + C[C@]1(O)C[C@@H](c2nc(-c3ccc4ccc(-c5ccccc5)nc4c3)c3c(N)nccn32)C1 [Linsitinib] (partner 1 µM)
Summed up: as §1

Compound in test [2]: COC1=CC=C(C=C1)CN2C=CC3=C2C=C(C=C3)C(=O)NO + CS(=O)(=O)CCNCc1ccc(-c2ccc3ncnc(Nc4ccc(OCc5cccc(F)c5)c(Cl)c4)c3c2)o1 [Lapatinib] (partner 2 µM)
In short, it runs like this:
as §1

Compound in the test “Veliparib + Tozasertib”: C[C@]1(c2nc3c(C(N)=O)cccc3[nH]2)CCCN1 [Veliparib] + Cc1cc(Nc2cc(N3CCN(C)CC3)nc(Sc3ccc(NC(=O)C4CC4)cc3)n2)n[nH]1 [Tozasertib] (partner 0.1 µM)
In short, it runs like this: as §1

Take SW 1573: the relative viability in the test with Veliparib + Decitabine (first compound 0.02 µM) came out at 0.29; with Veliparib + Decitabine (first compound 0.06325 µM), 0.289; with Veliparib + Decitabine (first compound 0.2 µM) it was 0.287; with Veliparib + Decitabine (first compound 0.6325 µM) it was 0.361; with Veliparib + Decitabine (first compound 2 µM) it was 0.298; in test [1] (first compound 0.253 µM), 0.835. The relative viability in test [1] (first compound 0.8 µM) came out at 0.761; in test [1] (first compound 2.53 µM), 0.666; in test [1] (first compound 8 µM), 0.514; in test [2] (first compound 0.253 µM), 1.07; in test [2] (first compound 0.8 µM), 1.36; in test [2] (first compound 2.53 µM), 1.2. For the same cell line, the relative viability was determined as 0.859 in test [2] (first compound 8 µM); 0.175 with Veliparib + Tozasertib (first compound 0.06325 µM); 0.17 with Veliparib + Tozasertib (first compound 0.2 µM); 0.204 with Veliparib + Tozasertib (first compound 0.6325 µM); 0.175 with Veliparib + Tozasertib (first compound 2 µM).
